Patent US9512105B2, “1-substituted 4-arylpiperazine as kappa opioid receptor antagonists” (RESEARCH TRIANGLE INSTITUTE, priority 2011, dated 2016)
Like-named read-outs stand apart in the source and are kept apart here.

Experiments:
[1] = target: T1, cloned human κ-opioid receptor (Homo sapiens, UniProt P41145); assay: Inhibition of U69,593-stimulated [35S]GTPγS binding; format: biochemical; conditions: for Kb: antagonism of U69,593-stimulated [35S]GTPγS binding, cloned human κ receptor, read-out: κ, U69,593 Ke; for δ/κ / μ/κ: ratio of Ke values; for δ/κ: selectivity for κ relative to δ; for μ/κ: selectivity for κ relative to μ
T1 construct: expressed in transfected cells

[2] = target: T2, cloned human μ-opioid receptor (Homo sapiens, UniProt P35372); assay: Inhibition of DAMGO-stimulated [35S]GTPγS binding; format: biochemical
T2 construct: expressed in transfected cells

[3] = target: T3, cloned human δ-opioid receptor (Homo sapiens, UniProt P41143); assay: Inhibition of DPDPE-stimulated [35S]GTPγS binding; format: biochemical
T3 construct: expressed in transfected cells

[4] = antagonism of DAMGO-stimulated [35S]GTPγS binding, cloned human μ receptor, read-out: μ, DAMGO Ke
[5] = antagonism of DPDPE-stimulated [35S]GTPγS binding, cloned human δ receptor, read-out: δ, DPDPE Ke

T2 sequence (P35372 whole entry): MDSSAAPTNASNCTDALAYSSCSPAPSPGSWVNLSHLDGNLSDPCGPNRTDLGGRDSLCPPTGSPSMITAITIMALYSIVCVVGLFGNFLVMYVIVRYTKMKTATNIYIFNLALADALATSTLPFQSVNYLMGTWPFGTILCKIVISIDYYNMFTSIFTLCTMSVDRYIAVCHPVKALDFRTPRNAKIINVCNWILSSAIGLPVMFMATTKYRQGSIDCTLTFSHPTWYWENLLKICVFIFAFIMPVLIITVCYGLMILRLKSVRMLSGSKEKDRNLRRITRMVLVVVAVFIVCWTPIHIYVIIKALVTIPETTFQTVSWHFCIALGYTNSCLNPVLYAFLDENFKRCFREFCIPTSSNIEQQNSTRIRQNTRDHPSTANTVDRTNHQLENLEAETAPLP
T3 sequence (P41143 whole entry): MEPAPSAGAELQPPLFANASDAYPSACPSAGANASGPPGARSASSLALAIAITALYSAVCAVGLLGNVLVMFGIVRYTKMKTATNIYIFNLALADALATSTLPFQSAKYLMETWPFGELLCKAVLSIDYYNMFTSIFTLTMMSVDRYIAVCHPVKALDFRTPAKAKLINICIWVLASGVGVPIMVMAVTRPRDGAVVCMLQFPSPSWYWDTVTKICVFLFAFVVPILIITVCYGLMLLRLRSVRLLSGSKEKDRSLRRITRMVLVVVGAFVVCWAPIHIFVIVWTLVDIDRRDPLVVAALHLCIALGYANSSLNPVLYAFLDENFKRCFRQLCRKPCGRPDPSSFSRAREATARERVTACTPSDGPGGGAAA
T1 sequence (P41145 whole entry): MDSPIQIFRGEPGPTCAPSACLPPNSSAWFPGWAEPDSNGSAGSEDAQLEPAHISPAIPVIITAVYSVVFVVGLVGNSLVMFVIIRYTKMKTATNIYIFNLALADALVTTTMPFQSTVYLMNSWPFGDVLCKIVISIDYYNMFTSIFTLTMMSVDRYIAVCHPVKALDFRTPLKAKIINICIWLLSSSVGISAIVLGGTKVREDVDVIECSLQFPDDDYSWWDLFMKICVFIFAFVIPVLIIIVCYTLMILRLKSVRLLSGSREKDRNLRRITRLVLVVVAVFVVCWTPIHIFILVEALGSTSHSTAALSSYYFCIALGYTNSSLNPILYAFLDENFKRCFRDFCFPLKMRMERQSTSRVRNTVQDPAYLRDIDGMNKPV

| Compound | melting point [°C] | Kb [1] [nM] | δ/κ [1] | μ/κ [1] | Kb [2, 4] [nM] | Kb [3] [nM] | Kb [3, 5] [nM] | Kb [2] [nM] |
| --- | --- | --- | --- | --- | --- | --- | --- | --- |
| COc1cc(C(=O)N[C@H](CN2CCN(c3cccc(O)c3)[C@@H](C)C2)C(C)C)ccc1Oc1ccccc1O.Cl.Cl [Compound 19m, 4-(2-Hydroxyphenoxy)-N-[(1S)-1-{[(3S)-4-(3-hydroxyphenyl)-3-methylpiperazin-1-yl]methyl}-2-methylpropyl]-3-methoxybenzamide Dihydrochloride] | 95 to 97 | 16.3 ± 2.7 | 4 | 5 | 74 ± 23 | 67 ± 47 | – | – |
| COc1cc(Oc2cccc(C)c2)ccc1C(=O)N[C@H](CN1CCN(c2cccc(O)c2)[C@@H](C)C1)C(C)C.Cl.Cl [Compound 19k, N-[(1S)-1-{[(3S)-4-(3-Hydroxyphenyl)-3-methylpiperazin-1-yl]methyl}-2-methylpropyl]-2-methoxy-4-(3-methylphenoxy)benzamide Dihydrochloride] | 99 to 102 | 1.3 ± 0.03 | 48 | 38 | 49 ± 14 | – | 63 ± 20 | – |
| Cc1cccc(Oc2ccc(C(=O)N[C@H](CN3CCN(c4cccc(O)c4)[C@@H](C)C3)C(C)C)c(C)c2)c1.Cl.Cl [Compound 19j, N-[(1S)-1-{[(3S)-4-(3-Hydroxyphenyl)-3-methylpiperazin-1-yl]methyl}-2-methylpropyl]-2-methyl-4-(3-methylphenoxy)benzamide Dihydrochloride] | 164 to 167 | 0.65 ± 0.2 | 28 | 22 | – | 18 ± 3 | – | 14 ± 3 |
| CC(C)[C@@H](CN1CCN(c2cccc(O)c2)[C@@H](C)C1)NC(=O)c1ccc(Oc2cccc(Cl)c2)cc1.Cl.Cl [Compound 19c, 4-(3-Chlorophenoxy)-N-[(1S)-1-{[(3S)-4-(3-hydroxyphenyl)-3-methylpiperazin-1-yl]methyl}-2-methylpropyl]benzamide Dihydrochloride] | 103 to 105 | 0.42 ± 0.05 | 20 | 43 | 18 ± 7.2 | – | 8.3 ± 0.9 | – |
